Among the data in ChEMBL document CHEMBL4431332, “Identification and Investigation of Novel Binding Fragments in the Fatty Acid Binding Protein 6 (FABP6)” (J Med Chem, 2016) are Kd values, retold here.

As usually defined, the Kd is the free concentration of one partner at which half of the binding sites on the other are occupied at equilibrium, for simple one-to-one binding.

The target of one experiment is T1, Gastrotropin (Homo sapiens, UniProt P51161).
T1 sequence (P51161 whole entry): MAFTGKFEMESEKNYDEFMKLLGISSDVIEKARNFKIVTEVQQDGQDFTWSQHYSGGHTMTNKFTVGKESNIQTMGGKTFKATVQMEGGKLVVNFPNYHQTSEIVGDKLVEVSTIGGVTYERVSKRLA
The experiment is described as follows: Binding affinity to recombinant human N-terminal His6 and Avi-tagged FABP6 expressed in Escherichia coli NEB cells by surface plasmon resonance method. A general note: In SPR one partner is held on a chip, and binding of the other changes the refractive index at the surface.

The target in experiment [1] is T2, Fatty acid-binding protein, liver (Homo sapiens, UniProt P07148).
T2 sequence (P07148 whole entry): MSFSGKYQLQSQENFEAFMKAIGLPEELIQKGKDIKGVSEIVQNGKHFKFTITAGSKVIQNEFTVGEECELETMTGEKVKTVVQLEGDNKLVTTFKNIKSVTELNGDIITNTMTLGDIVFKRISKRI
The experiment is described as follows: Binding affinity to recombinant human N-terminal His6 and Avi-tagged FABP1 expressed in Escherichia coli NEB cells by surface plasmon resonance method.

A value given as a limit tells only on which side of the number the result lay.

Turning to `Nc1nc2ccc(C(=O)c3ccccc3)cc2[nH]1`, the Kd on Gastrotropin was 13 µM.

With `Cc1cc2nc(N)[nH]c2cc1C`, the Kd in experiment [1] is more than 1000 µM. As for `c1ccc(CNc2ccccn2)cc1`, the Kd (in experiment [1]; on Gastrotropin) was 300 µM each time.

As to `Cc1nc(Cn2cnc3cc(C)c(C)cc32)cs1`, the Kd on Gastrotropin was found to be 400 µM. Turning to `CS(=O)(=O)N1CCCC(NCc2ccccc2)CC1` (centres undefined), the results for the Kd (in experiment [1]; at Gastrotropin) were more than 1000 µM and 300 µM, respectively.

For `COC(=O)c1cscc1-c1ccc(C(=O)N2CCOCC2)o1`, the results for the Kd (in experiment [1]; on Gastrotropin) were more than 1000 µM and 80 µM, respectively. On the same counts, the results for `O=C(c1ccco1)N1CCN(Cc2ccc3c(c2)OCO3)CC1` are 400 µM and 210 µM. On the same counts, the results for `O=C1NCCOc2ccc(F)cc21` are more than 1000 µM and 40 µM. Regarding `Cc1ccccc1CN1CCN(C(=O)c2cccnc2)CC1`, the Kd in experiment [1] was more than 1000 µM; on Gastrotropin, 290 µM. `CN1CCN(C(=O)c2ccc(=O)n(Cc3ccc(Cl)cc3)c2)CC1`: the Kd in experiment [1] is more than 1000 µM; on Gastrotropin it was 210 µM. On the same counts, the results for `Nc1c2c(nc3ccccc13)CCCC2` [TACRINE] are 900 µM and 200 µM.
